In the kinase profiling compilation of Christmann-Franck et al. (2016):

Columns and labels:
Test in all cases: KINOMEscan competition binding
Details in all cases: compound 1.0 µM
[1] = target: JAK1 JH1 catalytic (human) (UniProt P23458)
PRKACA (human) = PRKACA (human) (UniProt P17612)
CSNK1G3 (human) = CSNK1G3 (human) (UniProt Q9Y6M4)
TESK1 (human) = TESK1 (human) (UniProt Q15569)
SGK110 (human) = SGK110 (human) (UniProt P0C264)
RPS6KA2 KD1 (human) = RPS6KA2 KD1 (human) (UniProt Q15349)
MAP3K4 (human) = MAP3K4 (human) (UniProt Q9Y6R4)
MAP3K13 (human) = MAP3K13 (human) (UniProt O43283)
STK32B (human) = STK32B (human) (UniProt Q9NY57)
GSG2 (human) = GSG2 (human) (UniProt Q8TF76)
STK35 (human) = STK35 (human) (UniProt Q8TDR2)
STK35 (human), sequence (Q8TDR2 whole entry, looked up): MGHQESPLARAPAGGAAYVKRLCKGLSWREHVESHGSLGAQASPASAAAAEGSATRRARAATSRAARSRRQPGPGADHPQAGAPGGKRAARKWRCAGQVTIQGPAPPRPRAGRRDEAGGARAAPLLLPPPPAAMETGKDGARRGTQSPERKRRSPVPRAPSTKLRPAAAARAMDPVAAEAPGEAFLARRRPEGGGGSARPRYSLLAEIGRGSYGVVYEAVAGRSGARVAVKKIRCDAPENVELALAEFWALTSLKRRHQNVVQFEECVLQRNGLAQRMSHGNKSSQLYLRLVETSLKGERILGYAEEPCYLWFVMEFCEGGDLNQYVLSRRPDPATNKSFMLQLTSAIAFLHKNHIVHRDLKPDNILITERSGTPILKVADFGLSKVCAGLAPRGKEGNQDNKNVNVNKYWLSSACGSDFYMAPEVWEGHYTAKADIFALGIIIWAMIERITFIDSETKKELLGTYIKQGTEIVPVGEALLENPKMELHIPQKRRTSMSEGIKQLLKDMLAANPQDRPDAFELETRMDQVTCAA

MET (human) = MET (human) (UniProt P08581)
ICK (human) = ICK (human) (UniProt Q9UPZ9)
[2] = system: KIT (human), P10721 [L576P]
IRAK4 (human) = IRAK4 (human) (UniProt Q9NWZ3)
PIK3CD (human) = PIK3CD (human) (UniProt O00329)
MAP3K3 (human) = MAP3K3 (human) (UniProt Q99759)
MAP3K3 (human), sequence (Q99759 whole entry, looked up): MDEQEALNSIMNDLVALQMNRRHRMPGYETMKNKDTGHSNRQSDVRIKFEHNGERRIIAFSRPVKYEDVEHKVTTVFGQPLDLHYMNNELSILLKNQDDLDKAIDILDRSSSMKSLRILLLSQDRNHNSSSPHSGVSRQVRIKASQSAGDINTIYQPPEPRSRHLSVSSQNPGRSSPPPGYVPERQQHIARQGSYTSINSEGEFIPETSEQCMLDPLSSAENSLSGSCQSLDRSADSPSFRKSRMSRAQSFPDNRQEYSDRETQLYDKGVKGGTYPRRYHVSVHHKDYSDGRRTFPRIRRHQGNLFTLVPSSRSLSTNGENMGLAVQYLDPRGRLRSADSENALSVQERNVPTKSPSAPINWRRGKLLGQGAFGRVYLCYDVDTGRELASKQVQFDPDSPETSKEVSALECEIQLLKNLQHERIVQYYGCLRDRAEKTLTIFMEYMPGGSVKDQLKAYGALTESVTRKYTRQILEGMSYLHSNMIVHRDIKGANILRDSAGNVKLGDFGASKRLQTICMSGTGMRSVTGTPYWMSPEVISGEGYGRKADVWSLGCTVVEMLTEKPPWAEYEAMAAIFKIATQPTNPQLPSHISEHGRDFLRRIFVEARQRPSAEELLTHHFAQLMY

ERBB3 (human) = ERBB3 (human) (UniProt P21860)
NUAK1 (human) = NUAK1 (human) (UniProt O60285)
CSNK1G1 (human) = CSNK1G1 (human) (UniProt Q9HCP0)
CSNK1G1 (human), sequence (Q9HCP0 whole entry, looked up): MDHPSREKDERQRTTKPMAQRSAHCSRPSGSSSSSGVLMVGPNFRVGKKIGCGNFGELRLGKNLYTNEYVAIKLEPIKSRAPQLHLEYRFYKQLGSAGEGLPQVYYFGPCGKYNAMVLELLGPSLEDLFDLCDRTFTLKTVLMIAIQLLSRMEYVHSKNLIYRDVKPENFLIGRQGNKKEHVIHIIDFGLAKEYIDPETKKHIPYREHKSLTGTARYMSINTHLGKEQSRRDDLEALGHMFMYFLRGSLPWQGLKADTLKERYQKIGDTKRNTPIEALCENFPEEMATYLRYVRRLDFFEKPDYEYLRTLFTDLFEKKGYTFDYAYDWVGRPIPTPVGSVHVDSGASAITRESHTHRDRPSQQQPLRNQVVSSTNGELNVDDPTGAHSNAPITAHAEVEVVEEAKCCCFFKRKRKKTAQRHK

DCLK2 (human) = DCLK2 (human) (UniProt Q8N568)
DCLK2 (human), sequence (Q8N568 whole entry, looked up): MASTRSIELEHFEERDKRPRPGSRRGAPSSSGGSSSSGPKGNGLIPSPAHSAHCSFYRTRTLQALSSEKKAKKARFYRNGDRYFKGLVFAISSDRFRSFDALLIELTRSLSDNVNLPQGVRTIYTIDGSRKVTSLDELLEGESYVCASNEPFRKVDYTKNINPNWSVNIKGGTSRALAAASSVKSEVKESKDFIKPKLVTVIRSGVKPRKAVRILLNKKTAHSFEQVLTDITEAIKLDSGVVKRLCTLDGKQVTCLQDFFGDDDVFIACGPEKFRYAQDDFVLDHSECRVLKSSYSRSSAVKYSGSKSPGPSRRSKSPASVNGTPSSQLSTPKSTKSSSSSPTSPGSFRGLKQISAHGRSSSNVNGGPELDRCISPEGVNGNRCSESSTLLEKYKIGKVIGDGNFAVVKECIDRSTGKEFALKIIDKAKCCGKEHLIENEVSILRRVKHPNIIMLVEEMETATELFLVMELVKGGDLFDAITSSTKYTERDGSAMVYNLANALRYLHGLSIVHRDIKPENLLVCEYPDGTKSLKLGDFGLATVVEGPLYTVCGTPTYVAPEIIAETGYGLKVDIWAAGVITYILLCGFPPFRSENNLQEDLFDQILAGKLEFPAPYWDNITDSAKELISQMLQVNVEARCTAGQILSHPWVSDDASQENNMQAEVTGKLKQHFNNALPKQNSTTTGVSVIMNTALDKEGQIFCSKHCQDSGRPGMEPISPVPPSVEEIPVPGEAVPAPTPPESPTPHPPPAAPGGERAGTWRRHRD

MELK (human) = MELK (human) (UniProt Q14680)
MELK (human), sequence (Q14680 whole entry, looked up): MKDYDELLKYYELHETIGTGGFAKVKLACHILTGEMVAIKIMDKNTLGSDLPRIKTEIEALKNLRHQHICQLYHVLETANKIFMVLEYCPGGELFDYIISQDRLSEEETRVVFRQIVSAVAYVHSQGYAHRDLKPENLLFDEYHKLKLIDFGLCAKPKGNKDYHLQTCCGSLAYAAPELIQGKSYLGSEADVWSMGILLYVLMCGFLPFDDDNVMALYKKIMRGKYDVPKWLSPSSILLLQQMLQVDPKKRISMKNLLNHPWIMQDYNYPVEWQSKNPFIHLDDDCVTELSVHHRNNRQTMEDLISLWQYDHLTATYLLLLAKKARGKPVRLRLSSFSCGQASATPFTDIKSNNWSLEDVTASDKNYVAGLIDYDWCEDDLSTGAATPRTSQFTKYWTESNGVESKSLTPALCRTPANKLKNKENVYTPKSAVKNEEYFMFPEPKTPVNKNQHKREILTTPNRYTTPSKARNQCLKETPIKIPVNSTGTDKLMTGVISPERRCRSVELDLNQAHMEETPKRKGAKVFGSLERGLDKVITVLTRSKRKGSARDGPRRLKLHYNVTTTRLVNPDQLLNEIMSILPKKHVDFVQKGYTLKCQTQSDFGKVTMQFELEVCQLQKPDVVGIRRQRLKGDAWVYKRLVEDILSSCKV

MAP2K1 (human) = MAP2K1 (human) (UniProt Q02750)
MYO3A (human) = MYO3A (human) (UniProt Q8NEV4)
BMPR1A (human) = BMPR1A (human) (UniProt P36894)
MAP4K2 (human) = MAP4K2 (human) (UniProt Q12851)
CPK1 (P.falciparum) = system: CPK1 (P.falciparum)
PAK1 (human) = PAK1 (human) (UniProt Q13153)
ULK2 (human) = ULK2 (human) (UniProt Q8IYT8)
[3] = system: EGFR (human), P00533 [A750P; 747-749 del]
SRMS (human) = SRMS (human) (UniProt Q9H3Y6)
SRMS (human), sequence (Q9H3Y6 whole entry, looked up): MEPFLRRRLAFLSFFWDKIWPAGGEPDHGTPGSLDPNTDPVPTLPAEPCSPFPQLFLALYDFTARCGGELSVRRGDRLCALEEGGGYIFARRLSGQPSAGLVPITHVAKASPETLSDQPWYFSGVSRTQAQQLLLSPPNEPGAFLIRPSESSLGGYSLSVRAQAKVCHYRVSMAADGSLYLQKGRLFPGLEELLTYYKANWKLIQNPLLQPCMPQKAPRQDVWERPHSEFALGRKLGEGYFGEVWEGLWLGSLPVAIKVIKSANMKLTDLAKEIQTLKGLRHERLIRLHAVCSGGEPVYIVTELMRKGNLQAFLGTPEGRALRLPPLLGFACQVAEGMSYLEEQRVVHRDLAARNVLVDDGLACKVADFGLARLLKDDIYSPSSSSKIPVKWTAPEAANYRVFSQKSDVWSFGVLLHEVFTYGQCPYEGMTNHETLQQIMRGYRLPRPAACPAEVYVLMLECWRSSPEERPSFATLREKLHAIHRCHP

PRKD2 (human) = PRKD2 (human) (UniProt Q9BZL6)
RPS6KA4 KD2 (human) = RPS6KA4 KD2 (human) (UniProt O75676)
RPS6KA3 KD1 (human) = RPS6KA3 KD1 (human) (UniProt P51812)
RPS6KA5 KD1 (human) = RPS6KA5 KD1 (human) (UniProt O75582)
PRKD1 (human) = PRKD1 (human) (UniProt Q15139)
CAMK2G (human) = CAMK2G (human) (UniProt Q13555)
RPS6KB1 (human) = RPS6KB1 (human) (UniProt P23443)

SGK110 (human), sequence (P0C264 whole entry, looked up): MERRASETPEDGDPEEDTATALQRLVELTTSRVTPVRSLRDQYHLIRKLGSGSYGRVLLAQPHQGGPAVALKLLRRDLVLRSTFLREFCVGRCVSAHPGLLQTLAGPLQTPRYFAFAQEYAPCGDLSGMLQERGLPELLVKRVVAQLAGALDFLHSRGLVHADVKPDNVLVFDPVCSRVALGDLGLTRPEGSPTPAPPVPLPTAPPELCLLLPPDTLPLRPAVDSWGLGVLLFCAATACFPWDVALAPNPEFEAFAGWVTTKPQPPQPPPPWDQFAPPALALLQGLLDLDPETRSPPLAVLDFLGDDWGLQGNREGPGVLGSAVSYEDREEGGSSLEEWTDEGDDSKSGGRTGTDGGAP
JAK1 JH1 catalytic (human), sequence (P23458 whole entry, looked up): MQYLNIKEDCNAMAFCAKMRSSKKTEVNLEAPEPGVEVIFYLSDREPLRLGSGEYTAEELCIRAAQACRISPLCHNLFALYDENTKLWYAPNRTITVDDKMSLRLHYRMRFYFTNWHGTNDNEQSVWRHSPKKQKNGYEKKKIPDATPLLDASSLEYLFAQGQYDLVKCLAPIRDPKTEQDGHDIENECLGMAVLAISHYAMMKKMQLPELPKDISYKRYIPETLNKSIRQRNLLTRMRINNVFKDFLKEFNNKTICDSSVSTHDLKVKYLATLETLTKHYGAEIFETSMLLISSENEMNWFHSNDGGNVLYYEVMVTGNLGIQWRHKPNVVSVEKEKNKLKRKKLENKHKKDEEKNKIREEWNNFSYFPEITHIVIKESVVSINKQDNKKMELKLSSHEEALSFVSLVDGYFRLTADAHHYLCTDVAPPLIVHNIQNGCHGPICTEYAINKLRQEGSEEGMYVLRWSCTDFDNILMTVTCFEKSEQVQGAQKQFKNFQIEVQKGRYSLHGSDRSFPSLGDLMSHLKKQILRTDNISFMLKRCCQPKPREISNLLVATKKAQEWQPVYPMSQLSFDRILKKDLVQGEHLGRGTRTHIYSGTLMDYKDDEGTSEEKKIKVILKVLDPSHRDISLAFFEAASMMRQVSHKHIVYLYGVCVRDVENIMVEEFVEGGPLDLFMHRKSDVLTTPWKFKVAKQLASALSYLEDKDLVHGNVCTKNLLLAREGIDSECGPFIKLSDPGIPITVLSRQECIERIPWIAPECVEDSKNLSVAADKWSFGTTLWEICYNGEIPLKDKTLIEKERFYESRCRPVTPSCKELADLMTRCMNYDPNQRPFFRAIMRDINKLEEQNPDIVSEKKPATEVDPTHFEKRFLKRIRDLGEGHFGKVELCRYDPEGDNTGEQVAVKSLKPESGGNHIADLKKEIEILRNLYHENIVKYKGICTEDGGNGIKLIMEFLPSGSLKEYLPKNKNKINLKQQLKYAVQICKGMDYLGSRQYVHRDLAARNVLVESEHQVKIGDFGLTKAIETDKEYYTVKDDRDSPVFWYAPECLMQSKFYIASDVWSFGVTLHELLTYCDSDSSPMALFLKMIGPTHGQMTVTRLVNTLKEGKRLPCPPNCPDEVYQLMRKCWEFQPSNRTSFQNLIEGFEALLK

## CNc1nc(Nc2ccc(C(=O)N3CCOCC3)cc2OC)ncc1Cl
[1]
  kinase still bound, per cent of control: 82%
PRKACA (human)
  residual activity: 100%
CSNK1G3 (human)
  kinase still bound, per cent of control: 100%
TESK1 (human)
  kinase still bound, per cent of control: 100%
SGK110 (human)
  kinase still bound, per cent of control: 100%
RPS6KA2 KD1 (human)
  kinase still bound, per cent of control: 100%
MAP3K4 (human)
  kinase still bound, per cent of control: 100%
MAP3K13 (human)
  kinase still bound, per cent of control: 100%
STK32B (human)
  kinase still bound, per cent of control: 99%
GSG2 (human)
  kinase still bound, per cent of control: 74%
STK35 (human)
  kinase still bound, per cent of control: 100%
MET (human)
  kinase still bound, per cent of control: 100%
ICK (human)
  kinase still bound, per cent of control: 100%
[2]
  kinase still bound, per cent of control: 9.4%
IRAK4 (human)
  kinase still bound, per cent of control: 100%
PIK3CD (human)
  kinase still bound, per cent of control: 69%
MAP3K3 (human)
  kinase still bound, per cent of control: 56%
ERBB3 (human)
  kinase still bound, per cent of control: 100%
NUAK1 (human)
  kinase still bound, per cent of control: 82%
CSNK1G1 (human)
  kinase still bound, per cent of control: 55%
DCLK2 (human)
  kinase still bound, per cent of control: 100%
MELK (human)
  kinase still bound, per cent of control: 100%
MAP2K1 (human)
  kinase still bound, per cent of control: 89%
MYO3A (human)
  kinase still bound, per cent of control: 63%
BMPR1A (human)
  kinase still bound, per cent of control: 100%
MAP4K2 (human)
  kinase still bound, per cent of control: 100%
CPK1 (P.falciparum)
  kinase still bound, per cent of control: 78%
PAK1 (human)
  kinase still bound, per cent of control: 100%
ULK2 (human)
  kinase still bound, per cent of control: 85%
[3]
  kinase still bound, per cent of control: 100%
SRMS (human)
  kinase still bound, per cent of control: 100%
PRKD2 (human)
  kinase still bound, per cent of control: 84%
RPS6KA4 KD2 (human)
  kinase still bound, per cent of control: 23%
RPS6KA3 KD1 (human)
  kinase still bound, per cent of control: 100%
RPS6KA5 KD1 (human)
  kinase still bound, per cent of control: 100%
PRKD1 (human)
  kinase still bound, per cent of control: 83%
CAMK2G (human)
  kinase still bound, per cent of control: 93%
RPS6KB1 (human)
  kinase still bound, per cent of control: 85%
